{
  "source": "paper PMC10116469",
  "about": "(Nature Communications, 2023)",
  "key": {"[1]": {"biological_target": "MPXV VP39 2′-O-RNA methyltransferase (Monkeypox virus, UniProt A0A7H0DN74)", "sequence (A0A7H0DN74 whole entry, looked up)": "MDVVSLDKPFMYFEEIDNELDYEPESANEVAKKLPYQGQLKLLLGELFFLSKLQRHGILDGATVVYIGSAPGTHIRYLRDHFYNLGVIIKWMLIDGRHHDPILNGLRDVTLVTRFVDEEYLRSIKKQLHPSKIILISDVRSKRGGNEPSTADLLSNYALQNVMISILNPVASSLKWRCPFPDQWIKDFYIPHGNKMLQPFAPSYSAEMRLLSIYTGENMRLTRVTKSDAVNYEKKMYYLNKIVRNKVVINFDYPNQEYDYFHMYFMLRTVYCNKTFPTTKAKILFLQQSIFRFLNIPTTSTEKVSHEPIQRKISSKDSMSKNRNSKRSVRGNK", "test": "biochemical"}, "[2]": {"tested_on": "SARS-CoV-2 nsp14 N7-MTase", "conditions": "cited from earlier work"}, "[3]": {"conditions": "IC50, individual fit of data set 1"}, "[4]": {"conditions": "IC50, individual fit of data set 2"}, "[5]": {"conditions": "IC50 average (averaged IC50 values from independent measurement)"}},
  "data": [
    {"smiles": "Nc1ncnc2c1c(I)cn2[C@@H]1O[C@H](CSCC[C@H](N)C(=O)O)[C@@H](O)[C@H]1O", "note": "[TO1119]", "values": [
      {"measurement": "HillSlope, individual fit of data set 1", "setting": "[1]", "result": -1.304},
      {"measurement": "HillSlope, individual fit of data set 2", "setting": "[1]", "result": -1.575},
      {"measurement": "LogIC50, fit of all data points", "setting": "[1]", "result": -0.8937},
      {"measurement": "LogIC50, individual fit of data set 1", "setting": "[1]", "result": -0.9194},
      {"measurement": "LogIC50, individual fit of data set 2", "setting": "[1]", "result": -0.8669},
      {"measurement": "IC50", "setting": "[1]; IC50", "result": 128, "unit": "nM"},
      {"measurement": "IC50", "setting": "[1]; IC50, fit of all data points", "result": 128, "unit": "nM"},
      {"measurement": "IC50", "setting": "[1]; [3]", "result": 120, "unit": "nM"},
      {"measurement": "IC50", "setting": "[1]; [4]", "result": 136, "unit": "nM"}
    ]},
    {"smiles": "Nc1ncnc2c1c(C#Cc1nc3ccccc3[nH]1)cn2[C@@H]1O[C@H](CSCC[C@H](N)C(=O)O)[C@@H](O)[C@H]1O", "note": "[TO500]", "values": [
      {"measurement": "HillSlope, individual fit of data set 1", "setting": "[1]", "result": -1.441},
      {"measurement": "HillSlope, individual fit of data set 2", "setting": "[1]", "result": -1.353},
      {"measurement": "LogIC50, fit of all data points", "setting": "[1]", "result": -0.7728},
      {"measurement": "LogIC50, individual fit of data set 1", "setting": "[1]", "result": -0.7814},
      {"measurement": "LogIC50, individual fit of data set 2", "setting": "[1]", "result": -0.7635},
      {"measurement": "IC50", "setting": "[1]; IC50, fit of all data points", "result": 169, "unit": "nM"},
      {"measurement": "IC50", "setting": "[1]; [3]", "result": 165, "unit": "nM"},
      {"measurement": "IC50", "setting": "[1]; [4]", "result": 172, "unit": "nM"},
      {"measurement": "IC50", "setting": "[1]; [5]", "result": 169, "unit": "nM"}
    ]},
    {"smiles": "Nc1ncnc2c1c(C#Cc1ccccc1)cn2[C@@H]1O[C@H](CSCC[C@H](N)C(=O)O)[C@@H](O)[C@H]1O", "note": "[TO427]", "values": [
      {"measurement": "HillSlope, individual fit of data set 1", "setting": "[1]", "result": -1.507},
      {"measurement": "HillSlope, individual fit of data set 2", "setting": "[1]", "result": -1.605},
      {"measurement": "LogIC50, fit of all data points", "setting": "[1]", "result": -0.9412},
      {"measurement": "LogIC50, individual fit of data set 1", "setting": "[1]", "result": -0.9395},
      {"measurement": "LogIC50, individual fit of data set 2", "setting": "[1]", "result": -0.9422},
      {"measurement": "IC50", "setting": "[1]; IC50 (mean ± SEM)", "result": "115 ± 0.4", "unit": "nM"},
      {"measurement": "IC50", "setting": "[1]; IC50, fit of all data points", "result": 114, "unit": "nM"},
      {"measurement": "IC50", "setting": "[1]; [3]", "result": 115, "unit": "nM"},
      {"measurement": "IC50", "setting": "[1]; [4]", "result": 114, "unit": "nM"},
      {"measurement": "IC50", "setting": "[1]; [5]", "result": 115, "unit": "nM"}
    ]},
    {"smiles": "CCc1cn([C@@H]2O[C@H](CSCC[C@H](N)C(=O)O)[C@@H](O)[C@H]2O)c2ncnc(N)c12", "note": "[TO1111]", "values": [
      {"measurement": "HillSlope, individual fit of data set 1", "setting": "[1]", "result": -1.277},
      {"measurement": "HillSlope, individual fit of data set 2", "setting": "[1]", "result": -1.517},
      {"measurement": "LogIC50, fit of all data points", "setting": "[1]", "result": -1.058},
      {"measurement": "LogIC50, individual fit of data set 1", "setting": "[1]", "result": -1.122},
      {"measurement": "LogIC50, individual fit of data set 2", "setting": "[1]", "result": -0.9871},
      {"measurement": "IC50", "setting": "[1]; IC50, fit of all data points", "result": 87.5, "unit": "nM"},
      {"measurement": "IC50", "setting": "[1]; [3]", "result": 75.5, "unit": "nM"},
      {"measurement": "IC50", "setting": "[1]; [4]", "result": 103, "unit": "nM"},
      {"measurement": "IC50", "setting": "[1]; [5]", "result": 89, "unit": "nM"}
    ]},
    {"smiles": "Nc1ncnc2c1c(C#Cc1cnc3ccccc3c1)cn2[C@@H]1O[C@H](CSCC[C@H](N)C(=O)O)[C@@H](O)[C@H]1O", "note": "[TO507]", "values": [
      {"measurement": "inhibition of SARS-CoV-2 nsp14", "setting": "[2]", "result": "nanomolar inhibitors"},
      {"measurement": "HillSlope, individual fit of data set 1", "setting": "[1]", "result": -1.446},
      {"measurement": "HillSlope, individual fit of data set 2", "setting": "[1]", "result": -1.972},
      {"measurement": "LogIC50, fit of all data points", "setting": "[1]", "result": -0.9412},
      {"measurement": "LogIC50, individual fit of data set 1", "setting": "[1]", "result": -0.9877},
      {"measurement": "LogIC50, individual fit of data set 2", "setting": "[1]", "result": -0.8836},
      {"measurement": "IC50", "setting": "[1]; IC50, fit of all data points", "result": 114, "unit": "nM"},
      {"measurement": "IC50", "setting": "[1]; [3]", "result": 103, "unit": "nM"},
      {"measurement": "IC50", "setting": "[1]; [4]", "result": 131, "unit": "nM"},
      {"measurement": "IC50", "setting": "[1]; [5]", "result": 117, "unit": "nM"}
    ]},
    {"smiles": "Nc1ncnc2c1c(C#Cc1ccc3ccccc3c1)cn2[C@@H]1O[C@H](CSCC[C@H](N)C(=O)O)[C@@H](O)[C@H]1O", "note": "[TO504]", "values": [
      {"measurement": "HillSlope, individual fit of data set 1", "setting": "[1]", "result": -1.768},
      {"measurement": "HillSlope, individual fit of data set 2", "setting": "[1]", "result": -1.833},
      {"measurement": "LogIC50, fit of all data points", "setting": "[1]", "result": -1.107},
      {"measurement": "LogIC50, individual fit of data set 1", "setting": "[1]", "result": -1.131},
      {"measurement": "LogIC50, individual fit of data set 2", "setting": "[1]", "result": -1.08},
      {"measurement": "IC50", "setting": "[1]; IC50, fit of all data points", "result": 78.1, "unit": "nM"},
      {"measurement": "IC50", "setting": "[1]; [3]", "result": 73.9, "unit": "nM"},
      {"measurement": "IC50", "setting": "[1]; [4]", "result": 83.2, "unit": "nM"},
      {"measurement": "IC50", "setting": "[1]; [5]", "result": 79, "unit": "nM"}
    ]},
    {"smiles": "Nc1ncnc2c1ncn2[C@@H]1O[C@H](C[C@@H](N)CC[C@H](N)C(=O)O)[C@@H](O)[C@H]1O", "note": "[sinefungin, reference compound]", "values": [
      {"measurement": "HillSlope, individual fit of data set 1", "setting": "[1]", "result": -0.961},
      {"measurement": "HillSlope, individual fit of data set 2", "setting": "[1]", "result": -0.8657},
      {"measurement": "LogIC50, fit of all data points", "setting": "[1]", "result": 0.3693},
      {"measurement": "LogIC50, individual fit of data set 1", "setting": "[1]", "result": 0.3792},
      {"measurement": "LogIC50, individual fit of data set 2", "setting": "[1]", "result": 0.3552},
      {"measurement": "IC50", "setting": "[1]; IC50", "result": 2300, "unit": "nM"},
      {"measurement": "IC50", "setting": "[1]; IC50, fit of all data points", "result": 2340, "unit": "nM"},
      {"measurement": "IC50", "setting": "[1]; [3]", "result": 2390, "unit": "nM"},
      {"measurement": "IC50", "setting": "[1]; [4]", "result": 2270, "unit": "nM"},
      {"measurement": "IC50", "setting": "[1]; [5]", "result": 2330, "unit": "nM"}
    ]},
    {"smiles": "C=Cc1cn([C@@H]2O[C@H](CSCC[C@H](N)C(=O)O)[C@@H](O)[C@H]2O)c2ncnc(N)c12", "note": "[TO1116]", "values": [
      {"measurement": "HillSlope, individual fit of data set 1", "setting": "[1]", "result": -0.9545},
      {"measurement": "HillSlope, individual fit of data set 2", "setting": "[1]", "result": -1.033},
      {"measurement": "LogIC50, fit of all data points", "setting": "[1]", "result": -0.836},
      {"measurement": "LogIC50, individual fit of data set 1", "setting": "[1]", "result": -0.8617},
      {"measurement": "LogIC50, individual fit of data set 2", "setting": "[1]", "result": -0.8127},
      {"measurement": "IC50", "setting": "[1]; IC50, fit of all data points", "result": 146, "unit": "nM"},
      {"measurement": "IC50", "setting": "[1]; [3]", "result": 138, "unit": "nM"},
      {"measurement": "IC50", "setting": "[1]; [4]", "result": 154, "unit": "nM"},
      {"measurement": "IC50", "setting": "[1]; [5]", "result": 146, "unit": "nM"}
    ]},
    {"smiles": "Nc1ncnc2c1c(C#Cc1cccc3ccccc13)cn2[C@@H]1O[C@H](CSCC[C@H](N)C(=O)O)[C@@H](O)[C@H]1O", "note": "[TO494]", "values": [
      {"measurement": "HillSlope, individual fit of data set 1", "setting": "[1]", "result": -1.676},
      {"measurement": "HillSlope, individual fit of data set 2", "setting": "[1]", "result": "~ -5.860"},
      {"measurement": "LogIC50, fit of all data points", "setting": "[1]", "result": -0.9386},
      {"measurement": "LogIC50, individual fit of data set 1", "setting": "[1]", "result": -1.017},
      {"measurement": "LogIC50, individual fit of data set 2", "setting": "[1]", "result": "~ -0.7109"},
      {"measurement": "IC50", "setting": "[1]; IC50, fit of all data points", "result": 115, "unit": "nM"},
      {"measurement": "IC50", "setting": "[1]; [3]", "result": 96.1, "unit": "nM"},
      {"measurement": "IC50", "setting": "[1]; [5]", "result": 145, "unit": "nM"}
    ]}
  ]
}
